Test results: ChEMBL document CHEMBL1201862, “PubChem BioAssay data set” (2004)
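Compound exposure: 48 hours, 5 concentrations, 96-well plates. GI50 is the concentration that inhibits growth by half.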 Active and inactive are the calls of the source. No stated cut-off is given here; in the data, active = GI50 up to about 1.1 µM and inactive = higher.

Columns and labels:
Assay in all cases: NCI-60 cell line screen, 48 h
SF-268 = test system: SF-268
HL-60 = test system: HL-60
DU-145 = test system: DU-145
Malme-3M = test system: Malme-3M
U-251 = test system: U-251
SK-MEL-28 = test system: SK-MEL-28
SK-OV-3 = test system: SK-OV-3
HOP-62 = test system: HOP-62
TK-10 = test system: TK-10
RPMI-8226 = test system: RPMI-8226
NCI-H23 = test system: NCI-H23
SF-539 = test system: SF-539
MDA-MB-435 = test system: MDA-MB-435
HCT-116 = test system: HCT-116
MOLT-4 = test system: MOLT-4
SK-MEL-2 = test system: SK-MEL-2
CAKI-1 = test system: CAKI-1
HCC 2998 = test system: HCC 2998
SNB-75 = test system: SNB-75

Measured: GI50

O=C1C(Cl)=C(Cl)C(=O)N1c1ccc(F)cc1 [FLUOROIMIDE]
inactive: SF-268 28.8 µM | HL-60 1.89 µM | DU-145 37.9 µM | Malme-3M 17.2 µM | U-251 33.1 µM | SK-MEL-28 19.7 µM | SK-OV-3 28.6 µM | HOP-62 > 67.9 µM | TK-10 18.7 µM | RPMI-8226 15.1 µM | NCI-H23 17.5 µM | SF-539 23.5 µM | MDA-MB-435 17.9 µM | HCT-116 26 µM | MOLT-4 6.22 µM | SK-MEL-2 46.1 µM | CAKI-1 13.7 µM | HCC 2998 19.6 µM | SNB-75 12.8 µM

O=C(/N=N/c1cccc(Cl)c1)NNc1cccc(Cl)c1
inactive: SF-268 24.7 µM | HL-60 16.7 µM | DU-145 17.5 µM | Malme-3M 16.7 µM | U-251 18.7 µM | SK-MEL-28 20.1 µM | HOP-62 5.3 µM | TK-10 25.1 µM | RPMI-8226 8.36 µM | NCI-H23 26.2 µM | MDA-MB-435 11.5 µM | HCT-116 8.22 µM | MOLT-4 10.9 µM | SK-MEL-2 11.5 µM | CAKI-1 18.1 µM | HCC 2998 14.7 µM | SNB-75 28.5 µM

CC(=O)O/C=C1/C[C@H]2[C@@H]3CCC4CC(C(C)=O)CC[C@]4(C)[C@H]3CC[C@]2(C)C1=O (stereo not given in full)
inactive: SF-268 > 100 µM | HL-60 11.9 µM | DU-145 > 100 µM | Malme-3M > 100 µM | U-251 40.6 µM | SK-MEL-28 > 100 µM | SK-OV-3 > 100 µM | HOP-62 > 100 µM | TK-10 > 100 µM | NCI-H23 81.7 µM | MDA-MB-435 > 100 µM | HCT-116 29.6 µM | MOLT-4 39.1 µM | SK-MEL-2 > 100 µM | CAKI-1 > 100 µM | HCC 2998 > 100 µM

NC1=Nc2ncccc2C(=O)NN1
inactive: SF-268 > 10 µM | HL-60 > 10 µM | DU-145 > 10 µM | Malme-3M > 10 µM | U-251 > 10 µM | SK-MEL-28 > 10 µM | SK-OV-3 > 10 µM | HOP-62 > 10 µM | TK-10 > 10 µM | RPMI-8226 > 10 µM | NCI-H23 > 10 µM | SF-539 > 10 µM | MDA-MB-435 > 10 µM | HCT-116 > 10 µM | MOLT-4 > 10 µM | SK-MEL-2 > 10 µM | HCC 2998 8.89 µM | SNB-75 > 10 µM
